Data set [1] has as its target T1, MBL (Homo sapiens, UniProt P11226). In words: Affinity of common carbohydrate moieties for MBL. It is filed as binding. The note with it: for affinity for MBL, rank order of common carbohydrate moieties: value = moieties ranked next below (>) or above (<).
Data set [2] in a line: Comparison of stability of MBL and Con A in glucose assay. As for the experimental part:
Example 5 was repeated using MBL-AF594 and ConA-AF594 as lectin with 110 kDa HMCV1-dextran as analyte analogue in physiological TRIS buffer (pH 7.4, sodium, potassium and calcium present in physiological concentrations). […] Measurements were taken at 5 minute intervals using a miniaturized time resolved fluorimeter.

In data set [3] the target is T1, MBL. The note with it: cited from earlier work.

T1 sequence (P11226 21-248, species assumed): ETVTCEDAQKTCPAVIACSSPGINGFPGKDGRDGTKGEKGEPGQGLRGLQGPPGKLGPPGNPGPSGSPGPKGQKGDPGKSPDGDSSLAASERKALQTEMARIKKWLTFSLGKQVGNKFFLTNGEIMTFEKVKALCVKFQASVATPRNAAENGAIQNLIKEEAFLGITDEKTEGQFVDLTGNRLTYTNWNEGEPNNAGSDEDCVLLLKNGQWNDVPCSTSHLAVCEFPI

As to `O=C[C@H](O)[C@@H](O)[C@@H](O)[C@H](O)CO` [D-galactose], in data set [1], the “affinity / binding to MBL in words” value is listed as “very low affinity” and the “affinity for MBL, rank order of common carbohydrate moieties” value (“affinity for MBL, rank order” below) is reported as “D-lyxose”.
In the case of `OC[C@@H](O)[C@@H](O)[C@H](O)[C@@H](O)CO` [D-sorbitol], the “affinity for MBL, rank order” value in data set [1] is “> D-lyxose”.
Regarding `O=C(CO)[C@@H](O)[C@H](O)[C@H](O)CO` [D-fructose], the “affinity for MBL, rank order” value in data set [1] is “> myo-inositol, D-glucose, D-arabinose, D-palatinose, D-turanose, D-sorbitol, D-ribose, D-tagatose”.
For `O=C(CO)[C@@H](O)[C@@H](O)[C@H](O)CO` [D-tagatose], the “affinity for MBL, rank order” value in data set [1] is on record as “> D-lyxose”.
For the molecule `OC[C@H]1O[C@H](OC[C@H]2OC(O)(CO)[C@@H](O)[C@@H]2O)[C@H](O)[C@@H](O)[C@@H]1O` (stereo partly drawn) [D-palatinose], the “affinity for MBL, rank order” value in data set [1] is “> D-lyxose”.
Same read-out and setting: the value for `CC(=O)N[C@@H]1C(O)O[C@H](CO)[C@@H](O)[C@@H]1O` (stereo partly drawn) [N-acetyl-D-mannosamine] was “> myo-inositol, D-glucose, D-arabinose, D-palatinose, D-turanose, D-sorbitol, D-ribose, D-tagatose”; that for `OC[C@H]1O[C@@](CO)(O[C@H]2O[C@H](CO)[C@@H](O[C@H]3O[C@H](CO)[C@@H](O)[C@H](O)[C@H]3O)[C@H](O)[C@H]2O)[C@@H](O)[C@@H]1O` [erlose] was “> myo-inositol, D-glucose, D-arabinose, D-palatinose, D-turanose, D-sorbitol, D-ribose, D-tagatose”; that for `OC[C@H]1O[C@H](O[C@@H]2CO[C@](O)(CO)[C@@H](O)[C@@H]2O)[C@H](O)[C@@H](O)[C@@H]1O` [D-leucrose] was “> myo-inositol, D-glucose, D-arabinose, D-palatinose, D-turanose, D-sorbitol, D-ribose, D-tagatose”.
Turning to Concanavalin A, the “reduction in the measured phase” value in data set [2] (after 20 days, 110 kDa HMCV1-dextran, physiological TRIS buffer pH 7.4) is “more than 10%”. In addition, the “time stable at body temperature” value in data set [2] (assay conditions, body temperature) is “less than 20 days”.
For the molecule `O=C[C@H](O)[C@@H](O)[C@@H](O)CO` [L-arabinose], the “affinity for MBL, rank order” value in data set [1] is listed as “D-lyxose”.
Regarding `O=C[C@H](O)[C@@H](O)[C@H](O)[C@H](O)CO` [D-glucose], in data set [1], the “affinity / binding to MBL in words” value is recorded as “high affinity” and the “affinity for MBL, rank order” value is “> D-lyxose”.
In the case of “MBL-AF594: human MBL stained with Alexa Fluor 594 succinimidyl ester, 2.3 dyes per subunit”, in data set [2] (110 kDa HMCV1-dextran, physiological TRIS buffer pH 7.4, glucose cycles 2.5-50 mM), the “phase measurements at each glucose level over time” value is reported as “constant over time”.
For `CC(=O)N[C@H]1C(O)O[C@H](CO)[C@@H](O)[C@@H]1O` (stereo partly drawn) [N-acetyl-D-glucosamine], in data set [1], the “affinity / binding to MBL in words” value is on record as “high affinity” and the “affinity for MBL, rank order” value was “> myo-inositol, D-glucose, D-arabinose, D-palatinose, D-turanose, D-sorbitol, D-ribose, D-tagatose”.
`O=C[C@@H](O)[C@@H](O)[C@H](O)[C@H](O)CO` [D-Mannose]: in data set [1], the “affinity / binding to MBL in words” value is recorded as “high affinity” and the “affinity for MBL, rank order” value is “> myo-inositol, D-glucose, D-arabinose, D-palatinose, D-turanose, D-sorbitol, D-ribose, D-tagatose”.
For `O=C[C@H](O)[C@H](O)[C@H](O)CO` [D-ribose], the “affinity for MBL, rank order” value in data set [1] is “> D-lyxose”.
Still for that read-out and setting: the value for `O=C[C@@H](O)[C@H](O)[C@H](O)CO` [D-arabinose] was “> D-lyxose”.
Turning to D-turanose, the “affinity for MBL, rank order” value in data set [1] is listed as “> D-lyxose”.
For the molecule “SFGSGFGGGY [keratin peptide, peptide which mimics N-acetyl glucosamine]”, the “inhibition of MBL” value in data set [3] is listed as “can inhibit MBL”.
Turning to `O=C[C@@H](O)[C@@H](O)[C@H](O)CO` [D-lyxose], the “affinity for MBL, rank order” value in data set [1] is recorded as “> lactose, L-arabinose, D-galactose”.
Consider `C[C@H](O)[C@@H](O)[C@@H](O)[C@H](O)C=O` [L-Fucose], for which the “affinity for MBL, rank order” value in data set [1] was “> myo-inositol, D-glucose, D-arabinose, D-palatinose, D-turanose, D-sorbitol, D-ribose, D-tagatose”.
As for “MBL: collagen-like C-type collectin, human MBL”, the “time stable in a glucose assay” value in data set [2] (glucose assay) is “at least 17 days”.
With `OC[C@H]1O[C@@H](O[C@H]2[C@H](O)[C@@H](O)C(O)O[C@@H]2CO)[C@H](O)[C@@H](O)[C@H]1O` (stereo partly shown) [lactose], the “affinity for MBL, rank order” value in data set [1] is given as “D-lyxose”.
Take `O[C@H]1[C@H](O)[C@@H](O)[C@H](O)[C@@H](O)[C@H]1O` [myo-inositol]: in data set [1], the “affinity for MBL, rank order” value is “> D-lyxose”.

Values taken from patent US8700113B2, “Sensor for detection of carbohydrate” (Medtronic Minimed, Inc., priority 2004, dated 2014).
